Reference: patent publication US20150306002A1, “3-HYDROXY-4-OXO-4H-PYRAN- OR 3-HYDROXY-4-OXO-1,4-DIHYDROPYRIDINE DERIVATIVES AS PROTEIN-ADHESIVE ACTIVE SUBSTANCES” (MERCK PATENT GMBH, priority 2012, published 2015)

Columns and labels:
[1] = Determination of the protein affinity in the lysine model (HPTLC); conditions: 10 mg in 5 ml THF made up to 10 ml with lysine solution (200 mg/l water), 35° C., HPTLC detection at 254 nm and 366 nm; for reaction with lysine in a Maillard reaction / detectability of starting substance after 1 h: sample after 1 h
Method: In each case, 10 mg of the substances according to Example 1 and Example 2 are weighed out into a 10 ml volumetric flask and dissolved in 5 ml of tetrahydrofuran (THF). The volumetric flask is then made up to the mark with a lysine solution in distilled water. The concentration of the lysine solution is 200 mg/I of water. The solution is stirred in the volumetric flask at 35° C. for 24 h. Samples are taken after 1 h and after 24 h. 5 μl of each of these samples are pipetted onto the start zone of an HPTLC silica gel 60 […] plate (Merck Art. 1.05628) using a micropipette. For development of the HPTLC plate, the eluent consisting of THF/heptane in the ratio 75/25 containing 0.1 vol % of formic acid is used. After development, detection is carried out at 254 nm and 366 nm in a CAMAG ATS4, and the Rf values are determined.

[2] = Investigation in the Liquidskin model (L*-a*-b* values, UV/VIS spectrometer); conditions: RT, 3 hrs
Method: 1 mmol of the substance according to Example 1 (2-methyl-4-oxo-4H-pyran-3-yl 2-(4-dibutylamino-2-hydroxybenzoyl)benzoate) is dissolved in 94 ml of ethylene glycol and 6 ml of water (potassium hydrogenphthalate-buffered, pH=4) with 1 mmol of DL-lysine and stirred at RT for 3 hrs. (=Liquidskin model). The L*-a*-b* values of this solution are subsequently measured using a UV/VIS spectrometer (Varian Cary-100) and compared with the starting values.

[3] = 1 mmol substance + 1 mmol DL-lysine in 94 ml ethylene glycol and 6 ml water (pH=4), compared with starting values

| SMILES | reaction with lysine in a Maillard reaction / detectability of starting substance after 1 h [1] | delta L* [2, 3] | delta a* [2, 3] | delta b* [2, 3] | colour change of lysine ([2]; Liquidskin model) | reaction with lysine in a Maillard reaction / detectability of starting substance after 24 h ([1]; sample after 24 h) |
| --- | --- | --- | --- | --- | --- | --- |
| CCCCN(CCCC)c1ccc(C(=O)c2ccccc2C(=O)Oc2c(C)occc2=O)c(O)c1 [Example 1, 2-methyl-4-oxo-4H-pyran-3-yl 2-(4-dibutylamino-2-hydroxybenzoyl)benzoate] | completely reacted with lysine | −4.07 | −2.75 | +7.83 | exhibits a colour change of lysine |  |
| COc1ccc(/C=C/C(=O)Oc2c(C)occc2=O)cc1 [Example 2, 2-methyl-4-oxo-4H-pyran-3-yl 2-(E)-3-(4-methoxyphenyl)acrylate] | can still be detected |  |  |  |  | reaction is complete |
